Common to all, as to format: cell-based
For assay [1], the system named is S. epidermidis strain ATCC 35984. The experiment in a line: Biofilm prevention screen (96-well microplate, crystal violet). As to conditions: Staphylococcus epidermidis, positive = prevention, negative = enhancement of biofilm formation, quadruplicate, read-out: average percentage reduction of biofilm formed relative to DMSO controls; for inhibition at 32 µM: ATCC35984, 32 μM; for inhibition at 160 µM: ATCC35984, 160 μM; for inhibition at 390 µM: ATCC35984, 390 μM. The protocol: (§1) Overnight cultures of 3 mL are made of P. aeruginosa strain PAO1 (grown in R2A medium (Handbook of Microbiological Media; CRC Press, 1997, second edition, R. M. Atlas, ed.), modified to omit Mg^2+ but to include 0.3–0.5% fructose (pH 7.0) and 3 μM ferrous ammonium sulfate), P. fluorescens strain ATCC 13525 (grown in R2A modified to omit Mg^2+ but to include 0.3–0.5% sodium pyruvate (pH 7.0)), S. epidermidis strain ATCC 35984 (grown in a ¼ dilution of TSB (Handbook of Microbiological Media; CRC Press, 1997, second edition, R. M. Atlas, ed.) supplemented with 1% fructose (pH 7.0) and 3 μM ferrous ammonium sulfate). To each type of growth medium, HEPES (pH 7.3) is optionally added to a final concentration of 10 mM.
(§2) To PS, PVC, or PP (preferably PP or PVC) round-bottom, 96-well microplates containing 100 μl per well of the respective growth medium as described above, compounds to be tested (dissolved in DMSO) are added and mixed, to give a final concentration of 250–500 μM. These microplates then also are used to make successive dilutions of the compounds in the same respective growth medium to yield microplates containing final concentrations of, for example, 160 μM and 32 μM of the same set of compounds. Control wells are included in the dilution series that contain only DMSO. From the 3 ml overnight cultures, each of the three dilution plate sets is inoculated with 5 μl per well of a 1:1 dilution in the same liquid growth media of the appropriate culture. The covered plate is then incubated with shaking, at 30° C. (for P. aeruginosa or P. fluorescens) or 37° C. (for S. epidermidis), at 200 rpm, for 16–26 hours, in a humidity controlled environment.
(§3) Cells present in biofilm attached to the microplate surface are stained with CV either after removal of the liquid from each well, followed by rinsing three times (aspiration and addition) with 150 μl per well phosphate buffered saline solution (PBS) and final addition of 100 μl per well of PBS, or by direct addition of stain to bacterial cultures without rinsing. To 100 μl per well of PBS or of bacterial culture, 25 μl/well of 1% CV solution (in ˜10% ethanol) is added. After incubation at room temperature for 45 minutes, the dye solution is removed from the plates. Residual dye is immediately removed by gentle rinsing with a stream of deionized water by filling and inverting the plates 4–5 times, or by using an automated pipettor. Rinsed plates are air-dried at room temperature for 0.5–2 hours. Bound dye is extracted by the addition of 150 μL per well of 95% ethanol, followed by vigorous mixing for 10–15 seconds and incubation for 45 minutes at room temperature without shaking. Subsequently, either undiluted or diluted (in ethanol) samples of extracted CV are transferred to flat bottom, polystyrene microtiter plates and absorbances at 586 nm were measured in a microplate reader. Readings from wells containing compounds are compared to the average of data from control wells that contain only DMSO. Replicate samples are measured, and results are reported as averages of the replicate well data points.
(§4) Data are expressed in terms of the average percentage reduction of biofilm formed in the presence of each compound, relative to the DMSO controls, for quadruplicate samples. Assays are run using the three compound concentrations indicated. Positive numbers indicate prevention of biofilm formation by a compound, and negative numbers indicate enhancement of biofilm formation by a compound (percentage coefficients of variation are ≦10%).

The test system of assay [2] is P. fluorescens strain ATCC 13525. The assay is described as above. As to conditions: Pseudomonas fluorescens, positive = prevention, negative = enhancement of biofilm formation, quadruplicate, read-out: average percentage reduction of biofilm formed relative to DMSO controls; for inhibition at 32 µM: ATCC13525, 32 μM; for inhibition at 160 µM: ATCC13525, 160 μM; for inhibition at 390 µM: ATCC13525, 390 μM. How it is done:
as §1, §2, §3, §4

In assay [3] the test system is P. aeruginosa strain PAO1. Described as above. As to conditions: Pseudomonas aeruginosa, positive = prevention, negative = enhancement of biofilm formation, quadruplicate, read-out: average percentage reduction of biofilm formed relative to DMSO controls. The protocol: as §1, §2, §3, §4
For assay [4], the system named is S. epidermidis strain ATCC 35984. The experiment in a line: Improved biofilm dispersion screen (already-formed biofilms, crystal violet). The note with it: Staphylococcus epidermidis, ATCC35984, no NaOH, positive = dispersion, negative = enhancement of pre-existing biofilm, quadruplicate, read-out: average percentage reduction of biofilm relative to the two control values (dispersion). How it is done:
(§5) A modification of method disclosed in Reference Example 2, which greatly improves the sensitivity and reproducibility of the dispersion screen is hereby disclosed. […] In the modification described herein, compounds are added in the presence of the fresh liquid growth media, such that the resultant biofilms continue to grow, unless a test compound triggers their dispersion. Overnight cultures are made as above, and 100 μL of the appropriate liquid growth media are dispensed into duplicate 96 well microplates—in this fashion, two identical microplates are set up for each bacterial species to be assayed. Neither compounds nor DMSO are added prior to the inoculation of bacteria, and growth in the duplicate plates for 24 hours is allowed using the conditions specified in Reference Example 1. After growth of biofilm to be tested in the wells, cells present in biofilm attached to one of the duplicate microplates is stained with CV, quantitated as described in Reference Example 1, and the data for the entire plate averaged, resulting in a growth control value, t0. The remaining replicate of each microplate pairs is treated with compounds in DMSO, or DMSO alone for control wells, by first removing the cell suspensions from the wells, then adding fresh 100 μL volumes of the same appropriate liquid growth media, followed by direct addition and mixing of the compound DMSO solutions to give final compound concentrations of 390 μM. Incubation of the compound-containing microplates is then continued for an additional 22–26 hours using the same conditions described in Reference Example 1. Cell suspensions are then removed, 100 μL per well of a 0 mM NaOH (S. epidermidis), 20 mM NaOH (P. fluorescens), or 30 mM NaOH (P. aeruginosa) solution in PBS is added, and incubation at room temperature is allowed for 30 minutes. No addition of NaOH is made to the S. epidermidis suspension since a test assay indicated no amplification by base with S. epidermidis. The microplates are subsequently rinsed three times with 150 μL per well of PBS, followed by final liquid removal, staining with CV and quantitation as described in Reference Example 1. Data for each well that contained compound result in a compound value, R, and data for control wells that contained DMSO only are averaged to generate a second control value, t24. The effect of each compound tested on dispersion of the biofilm compared to the two control values is calculated thus: [formula] […] Data are expressed in terms of the average percentage reduction of biofilm formed in the presence of each compound, relative to the two control values, for quadruplicate samples. Assays are run as described above, using compound concentrations of 390 μM. Positive numbers indicate dispersion (reduction) of pre-existing biofilms by a compound, and negative numbers indicate enhancement (stimulation of growth) of pre-existing biofilms by a compound (percentage coefficients of variation are ≦15%).

Assay [5] has as its system P. fluorescens strain ATCC 13525. Described as above. The note with it: Pseudomonas fluorescens, ATCC13525, 20 mM NaOH step, positive = dispersion, negative = enhancement of pre-existing biofilm, quadruplicate, read-out: average percentage reduction of biofilm relative to the two control values (dispersion). How it is done: as §5
Assay [6] has as its system P. aeruginosa strain PAO1. Described as above. As to conditions: Pseudomonas aeruginosa, 30 mM NaOH step, positive = dispersion, negative = enhancement of pre-existing biofilm, quadruplicate, read-out: average percentage reduction of biofilm relative to the two control values (dispersion). How it is done:
as §5

Turning to `CCCCCCCCNC(=O)[C@H]1CCCCN1C(=O)CCCCCCC` [Compound 28, 1-Octanoyl-(R)-(+)-2-piperidinecarboxylic acid n-octyl amide], the results for the inhibition at 32 µM in assay [1], in assay [2] and in assay [3] were -5%, 21% and 0%, respectively. Besides, the inhibition at 160 µM was -44% in assay [1], 38% in assay [2] and -3% in assay [3]. The inhibition at 390 µM in assay [1] was -51%; in assay [2], 26%; in assay [3] it was -9%; in assay [4], -8%; in assay [5], 10%; in assay [6], -25%.
For `CCCCCCNC(=O)[C@@H]1CCCN1` [Compound 30], the inhibition at 32 µM in assay [1] was -12%; in assay [2] it was 11%; in assay [3], 2%. Further, the inhibition at 160 µM in assay [1] was -7%; in assay [2] it was 11%; in assay [3] it was 9%. In addition, the inhibition at 390 µM in assay [1] is -6%; in assay [2] it was 19%; in assay [3] it was 18%; in assay [4], -11%; in assay [5], 20%; in assay [6], 1%.
With `CCCCCCCCNC(=O)[C@@H]1CCCN1` [Compound 31], the inhibition at 32 µM in assay [1] is -7%; in assay [2] it was 3%; in assay [3] it was -37%. Further, the inhibition at 160 µM is -1% in assay [1], 5% in assay [2] and -125% in assay [3]. Moreover, the inhibition at 390 µM is -27% in assay [1]; 52% in assay [2]; -44% in assay [3]; -11% in assay [4]; 32% in assay [5]; 21% in assay [6].
`CCCCNC(=O)[C@H]1CCCN1C(=O)OC(C)(C)C` [Compound 152]: the results for the inhibition at 32 µM in assay [1], in assay [2] and in assay [3] were -5%, 5% and -4%, respectively. For the same compound, the values for the inhibition at 160 µM in assay [1], in assay [2] and in assay [3] were -13%, 5% and -9%, respectively. In addition, the inhibition at 390 µM in assay [1] is -8%; in assay [2], -7%; in assay [3], 2%; in assay [4], -4%; in assay [5], 1%; in assay [6], -9%.
As to `CCCCCCNC(=O)[C@H]1CCCN1C(=O)OC(C)(C)C` [Compound 153], the inhibition at 32 µM in assay [1] is -8%; in assay [2] it was 7%; in assay [3], -9%. The inhibition at 160 µM in assay [1] is -7%; in assay [2] it was 4%; in assay [3] it was -6%. Moreover, the inhibition at 390 µM is -17% in assay [1]; -3% in assay [2]; -4% in assay [3]; -10% in assay [4]; 1% in assay [5]; -7% in assay [6].
In the case of `CCCCCCCCNC(=O)[C@H]1CCCN1C(=O)OC(C)(C)C` [Compound 154], the inhibition at 32 µM in assay [1] is -16%; in assay [2], 4%; in assay [3], -1%. For the same compound, the inhibition at 160 µM in assay [1] was -42%; in assay [2] it was 10%; in assay [3], -9%. The inhibition at 390 µM in assay [1] is 52%; in assay [2], 11%; in assay [3], -15%; in assay [4], 0%; in assay [5], 10%; in assay [6], -63%.
As for `CCCCNC(=O)[C@@H]1CCCN1C(=O)OC(C)(C)C` [Compound 155], the results for the inhibition at 32 µM in assay [1], in assay [2] and in assay [3] were -3%, 10% and -5%, respectively. For the same compound, the inhibition at 160 µM was -1% in assay [1], 4% in assay [2] and 2% in assay [3]. Besides, the inhibition at 390 µM in assay [1] was 21%; in assay [2], 4%; in assay [3], 6%; in assay [4] it was -4%; in assay [5] it was 3%; in assay [6], -12%.

Source of the values: patent US7018642B2 (The Procter & Gamble Company, priority 2001, dated 2006).
